From PMC8061941 (PLoS ONE, 2021)
“Also recorded” adds a separate entry of the source. Square brackets hold non-standard residues; d marks the D form. Ends that are not written are not given here. Peptide text beside a SMILES is read from it.

Tests used:
[1] = Mass spectrometry analysis of Ringers solution from Ussing chambers during ex vivo recovery (degradation and fragment formation); assay type: in vitro ADME, pig; conditions: for Fragment detected in Ringers solution during ex vivo recovery: Ussing chambers with ischemia-injured jejunum in presence of parent peptide (LA or A6), MS analysis, N = 4; for half-life: pig, tissue, pH 7.4, Ussing chamber Ringers solution, ex vivo recovery 240 minutes, LC-MS/MS, n = 4, read-out: Half-life in ischemic injured jejunum tissue
Excerpt: After 45-minutes of ischemia, the pigs were euthanized, and intestinal segments were collected. Non-ischemic control tissue was also collected at this time. Following tissue collection, the seromuscular layer was stripped from the mucosa while the tissue was bathed in oxygenated (95% O2, 5% CO2) Ringer’s solution (in mmol/L: 154 Na^+, 6.3 K^+, 137 Cl^-, and 24 HCO3^-; pH 7.4). The mucosa was subsequently mounted in 1.1-cm^2 aperture Ussing chambers, as described in previous studies. Tissues were bathed on both the mucosal and serosal sides with 10mL Ringer’s solution. The mucosal bathing solution contained 10mM mannitol while the serosal side was osmotically balanced with 10mM glucose. Bathing solutions were oxygenated (95% O2, 5% CO2) and circulated in water-jacketed reservoirs. The spontaneous potential difference (PD) was measured using Ringer-agar bridges connected to calomel electrodes, and the PD was short-circuited through Ag-AgCl electrodes using a voltage clamp that was corrected for fluid resistance. TER (Ω·cm^2) was calculated from the spontaneous PD and short-circuit current (Isc). If the spontaneous PD was between -1.0 and 1.0 mV, tissues were current clamped at ± 100 μA for 5-seconds, and the PD was recorded. Isc and PD were recorded at 15-minute intervals over a 4-hour experiment. After tissues were mounted on Ussing chambers, all tissues were allowed to acclimate for a period of 30-minutes to establish stable baseline measurements, after which experimental, single-dose treatments of LA, LA fragments (F1, F2, or F3) with or without LA, A6, or A6 with or without A6 fragments (A6F1 or A6F2) were added to the apical chamber. For the microdosing regimen of LA, multiple doses at various concentrations of LA were added initially after the 30-minute acclimation period and every 45-minutes following this initial dose. Tissues were monitored by measuring transepithelial resistance (TER) for 240 minutes. Samples of Ringers solution were collected at select timepoints and quenched with 5% trifluoroacetic acid (TFA) solution (in 80% acetonitrile (ACN): 20% DI water). […] Standardization of ischemic injury severity between intestinal loops was standardized using a similar method as previously described in another intestinal mucosal injury model. First, T = 0 TER values from separate studies utilizing juvenile porcine intestinal ischemic tissue across three years were averaged (24 Ω·cm^2), and the standard deviation of this dataset was calculated (11 Ω·cm^2). Tissues with a T = 0 TER value exceeding one standard deviation of the mean (i.e., < 13 or > 35 Ω·cm^2) were excluded from experiments and data analysis.

aminopeptidase M = target: T1, aminopeptidase M (Sus scrofa, UniProt P15145); conditions: LA 0.2 mg/mL in SIF without pancreatin pH 6.5, 10 μM MgCl2, AM 0.66 unit/mL (porcine kidney), 37°C; UPLC-MS/MS; two separate runs
T1 sequence (P15145 1-963): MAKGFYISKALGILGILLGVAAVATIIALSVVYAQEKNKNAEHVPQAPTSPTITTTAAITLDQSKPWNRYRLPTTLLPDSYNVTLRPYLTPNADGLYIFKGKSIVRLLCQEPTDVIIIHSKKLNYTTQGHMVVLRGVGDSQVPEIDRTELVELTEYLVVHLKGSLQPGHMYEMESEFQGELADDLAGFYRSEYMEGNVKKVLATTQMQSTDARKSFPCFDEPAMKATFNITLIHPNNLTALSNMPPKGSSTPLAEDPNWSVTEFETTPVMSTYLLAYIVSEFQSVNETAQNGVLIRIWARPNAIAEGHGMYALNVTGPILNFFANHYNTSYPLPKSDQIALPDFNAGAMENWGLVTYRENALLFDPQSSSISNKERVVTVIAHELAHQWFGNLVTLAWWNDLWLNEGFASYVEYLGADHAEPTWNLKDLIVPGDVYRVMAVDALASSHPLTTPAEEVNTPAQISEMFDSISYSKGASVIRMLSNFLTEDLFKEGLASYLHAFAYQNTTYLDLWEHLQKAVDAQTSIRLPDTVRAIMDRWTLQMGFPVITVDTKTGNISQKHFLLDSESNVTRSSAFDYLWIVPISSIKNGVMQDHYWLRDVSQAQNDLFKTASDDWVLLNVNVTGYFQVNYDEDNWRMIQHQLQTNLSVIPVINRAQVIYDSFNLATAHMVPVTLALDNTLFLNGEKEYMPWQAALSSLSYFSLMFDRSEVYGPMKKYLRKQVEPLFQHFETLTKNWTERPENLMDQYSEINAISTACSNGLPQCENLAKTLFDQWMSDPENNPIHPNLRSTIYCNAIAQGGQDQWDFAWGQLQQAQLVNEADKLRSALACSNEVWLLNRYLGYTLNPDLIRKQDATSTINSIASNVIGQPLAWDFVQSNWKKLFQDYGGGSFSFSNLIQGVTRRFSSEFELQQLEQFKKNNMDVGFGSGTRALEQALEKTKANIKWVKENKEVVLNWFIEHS
Protocol: Aminopeptidase M (AM) degradation of LA in vitro was carried out as follows. LA solution (0.2 mg/mL) in simulated intestinal fluid (SIF) (without Pancreatin), USP XXII Formulation: Ricca Chemical) pH 6.5 containing MgCl2 (10 μM; catalyst support) was combined with AM (porcine kidney: Sigma) solution (final AM concentration is 0.66 unit/mL) in a vial. The combined mixture was incubated at 37°C in a shaker water bath, and samples for UPLC-MS analysis were collected at various timepoints quenched with 5% TFA solution (in 80% ACN: 20% DI water). Quenched samples were centrifuged at 13000xg for 5-minutes and the resulting supernatants were stored at -80°C for future MS analysis.
A simple and sensitive liquid chromatography/tandem mass spectrometric (LC-MS/MS) method was developed for the identification and quantification of LA and its digestive fragments in the enzyme digest solution and other matrices. Samples were prepared with simple ACN and TFA in water quenching of the enzyme activity and precipitation of protein(s). The supernatant was then diluted appropriately and analyzed directly using the UPLC-MS/MS method Chromatographic separations were achieved on a C18 reversed phase column using an ACN and TFA-water gradient. The detection was performed in MS/MS mode via positive electrospray ionization (ESI+) interface.
A Waters Quattro Xevo TOD mass spectrometer equipped with an electrospray ionization source and a Waters Acquity™ UPLC BEH system (Waters, Milford, MA, USA) with a binary solvent and a sample manager was used in this study. The LC column (Waters, C18, 50×2.1 mm, 1.7 μm) was operated at 35°C and the autosampler was operated at ambient temperature. A binary mobile phase (mobile phase A and mobile phase B) with a linear solvent gradient system was used for the chromatographic separations of larazotide and its digestive fragments. Mobile phase A, 0.02% TFA in water and mobile phase B, 0.02% TFA in ACN. The UPLC-MS/MS method was qualified for the determination and identification of larazotide and the larazotide digestive fragments in the enzyme digest solution.

Aminopeptidase M (AM) = experiment: AM (porcine kidney: Sigma) in simulated intestinal fluid (SIF) (without Pancreatin) pH 6.5 containing MgCl2 (10 μM); conditions: 37°C, up to 180 minutes
[2] = Ringers solution bathing ischemia-injured porcine jejunal mucosa mounted in Ussing chambers (ex vivo recovery); conditions: Yorkshire crossbred pigs, up to 240 minutes

Row | Compound | Fragment detected in Ringers solution during ex vivo recovery [1] | Degradation by aminopeptidase M and presence of fragments (aminopeptidase M) | other results
1 | CC(C)C[C@@H](NC(=O)[C@H](NC(=O)CN)C(C)C)C(=O)N[C@@H](C(=O)N[C@H](CCC(N)=O)C(=O)N1CCC[C@@H]1C(=O)NCC(=O)O)C(C)C [A6F1] (H-G[dV][dL][dV][dQ][dP]G-OH) | predominant fragment formed | – | –
2 | CC(C)C[C@@H](NC(=O)[C@H](N)C(C)C)C(=O)N[C@@H](C(=O)N[C@H](CCC(N)=O)C(=O)N1CCC[C@@H]1C(=O)NCC(=O)O)C(C)C [A6F2] (H-[dV][dL][dV][dQ][dP]G-OH) | formation | – | –
3 | CC(C)C[C@@H](NC(=O)[C@H](N)C(C)C)C(=O)N[C@@H](C(=O)N[C@H](CCC(N)=O)C(=O)N1CCC[C@@H]1C(=O)O)C(C)C [A6F4] (H-[dV][dL][dV][dQ][dP]-OH) | formation | – | –
4 | CC(C)C[C@@H](NC(=O)[C@H](NC(=O)CNC(=O)CN)C(C)C)C(=O)N[C@@H](C(=O)N[C@H](CCC(N)=O)C(=O)N1CCC[C@@H]1C(=O)NCC(=O)O)C(C)C [A6] (H-GG[dV][dL][dV][dQ][dP]G-OH) | – | – | Stability to brush-border enzyme degradation compared with LA ([1]; ex vivo stability data, Ussing chamber): significantly more stable; half-life [1]: 78 min
5 | GGVLVQP [F3] | highest concentration out of all four fragments | – | –
6 | GGVLVQPG [LA, Larazotide acetate] | – | fragmented throughout the entirety of the experiment | half-life [1]: 35 min
7 | GVLVQPG [F1] | are formed | found in all samples collected during the run | –
8 | H-GGVLVQPG-OH | – | – | cleaved bond (Aminopeptidase M (AM)): Gly-Val; cleaved bond [2]: Gly-Val; also recorded: Pro-Gly, major
9 | VLVQP [F4] | detected | – | –
10 | VLVQPG [F2] | are formed | not being detected after 90 minutes | –
